Results on 58 compounds are retold here after PMC12040169 (PLOS Biology, 2025).

Usually viability stands for a read-out of living cells in per cent, often relative to untreated cells.

A short description of one data set: in vitro. Particulars: human, hela cells, % viability.
For `CCCc1nc(C(=O)N2Cc3cnn(Cc4ccc(F)cc4)c3C2)cs1` [CBK307249], the viability at 28.5 h, 10 µM was found to be 86%.
Still for that read-out and setting: under `COc1ccc(CCC2CCN(C)CC2)c(O)c1` [CBK283668] stands 104%; under `CC(=O)OC1CCN(C(=O)c2cccc(C#N)c2)CC1` [CBK304648], 93.3%; under `COc1ccc(CCNC(=O)c2cc3c([nH]c2=O)CCC3)cc1C` [CBK281627], 83.2%.
Same read-out and setting: under `CCOc1sc(=S)n(C)c1C(C)=O` [CBK019515] stands 88%; under `Cn1ncc2c(NCCCC3CCOC3)nc(C(C)(C)C)nc21` (stereo not shown) [CBK307363], 113%.
Same read-out and setting: under `COCCNc1nc(-c2cccc(Cl)c2Cl)ccc1C(=O)N(C)CCN(C)C` [CBK105922] stands 98.3%; under `O=C(CN1CCCC1c1ccc(Nc2ccc(F)cn2)cn1)Nc1ccc(F)cc1` (stereo not shown) [CBK285941], 106%; under `COc1ccc(-c2cnc3[nH]c(=O)n(Cc4cccs4)c3n2)c(OC)c1OC` [CBK064716], 97.2%.
For `Cc1cc(NC(=O)NC2CC3(CCN(C)CC3)Oc3ccccc32)no1` (stereo not shown) [CBK305059], the viability at 28.5 h, 10 µM turned out to be 104%.
Still for that read-out and setting: under `c1ccc(CN2CC[C@H](c3nc4ncccc4[nH]3)C2)cc1` [CBK289383] stands 106%; under `COC(=O)c1ccc(-c2ccc(OC)c(OC)c2)nc1` [CBK160175T], 98.7%.
On the same count and under the same terms, with `COCCNC(=O)C(C)SCc1ccccc1` (stereo not shown) [CBK028889] the figure was 86.1%; with `COC(=O)CSc1nnc(-c2cc(Cl)ccc2OC)[nH]1` [CBK270248], 97%; with `O=C1[C@H]2CN(S(=O)(=O)c3ccc(F)cc3)CCN2C(=O)N1CCO` [CBK289640], 84.5%.
Still for that read-out and setting: with `CC1=NN(C(=O)C2CC2)C(=O)C1Cc1ccc(F)cc1` (stereo not shown) [CBK083561] the figure was 89.9%; with `O=C(NCC1CCOC1)c1ccc(-c2ccccc2CO)cc1` (stereo not shown) [CBK306616], 107%.
`CC(C)c1nccn1CCC(=O)N1CCC(c2ccncc2)CC1` [CBK283512]: the viability at 28.5 h, 10 µM stood at 105%.
Still for that read-out and setting: with `CC(C)CNc1nc(SCC(N)=O)nc(N(C)C)n1` [CBK269579] the figure was 93.8%; with `O=C1c2ccccc2CN1c1ccc(Cl)cc1Cl` [CBK109908], 95%; with `CSc1ncc(Cl)c(C(=O)Nc2nnc(C)s2)n1` [CBK268920], 90.1%.
Still for that read-out and setting: under `CCNC(=O)Nc1ccc2ccc(-c3ccc(SC)cc3)nc2n1` [CBK070656] stands 90.9%; under `CSc1nsc(SCC(=O)OC2CC3CCC2(C)C3(C)C)n1` (stereo not shown) [CBK268941], 92.5%; under `Cc1cc(NC(=O)CN2CCOC(CNc3cccnn3)C2)on1` (stereo not shown) [CBK305231], 109%.
As to `O=C(CCn1c(C(F)F)cc2cccnc21)N1CCOCC1` [CBK284956], the viability at 28.5 h, 10 µM is 101%.
On the same count and under the same terms, with `FC(F)(F)c1cccc(-c2cn3ccnc3c(NCc3ccncc3)n2)c1` [CBK066632] the figure was 97.8%; with `O=C(c1ccco1)N(CCCn1ccnc1)c1nc2c(F)cccc2s1` [CBK287758], 86.4%.
Consider `CCOC(=O)Cc1csc(SCC(=O)N2CCc3ccccc32)n1` [CBK306190], for which the viability at 28.5 h, 10 µM stood at 88.8%.
Regarding `COc1ccc2[nH]cc(CCNC(=O)[C@@H]3Cc4c([nH]c5ccccc45)C4(CCN(Cc5ccc(F)cc5)C4)N3)c2c1` (stereo partly shown) [CBK066937], the viability at 28.5 h, 10 µM was 98%.
Same read-out and setting: under `Cc1nc(NS(=O)(=O)c2c(C)noc2C)sc1C(=O)Nc1ccc(F)cc1` [CBK050551] stands 113%; under `COc1cc(OC)c(CN2CC3(C)CC2CC(C)(C)C3)cc1Br` (stereo not shown) [CBK307074], 86.4%; under `Cc1ccc2cc(CNc3ccc(-c4nc5cc(C)ccc5[nH]4)cc3)c(O)nc2c1` [CBK286156], 70.8%.
Still for that read-out and setting: with `Cc1noc(C)c1S(=O)(=O)Nc1csc(C(F)(F)F)c1-c1ccccc1` [CBK001237] the figure was 91%; with `O=C(COc1ccccc1)N1CCC(c2cccc(Cc3ccccc3F)n2)CC1` [CBK286211], 104%.
Same read-out and setting: under `C[C@H]1[C@@H]2[C@@H](O)C([C@H](C)C(=O)N3CCCC3)CC[C@@]2(C)CC[C@@H]1NC(=O)C1CC1` (stereo partly shown) [CBK289447] stands 85%; under `NC(=O)c1ccccc1NC(=O)CN1CCN(Cc2cccc(F)c2)CC1` [CBK270292], 85.9%; under `CN(CCN1CCCCC1)C(=O)c1cc2c([nH]1)CCCC2` [CBK281836], 86.5%.
Regarding `CCOc1n[s+]([O-])nc1Nc1cc(Cl)cc(Cl)c1` (stereo not shown) [CBK007897], the viability at 28.5 h, 10 µM is 101%.
The same measure, in the same setting: with `O=C1NC2=C(C(=O)N(CC3CCCO3)C2)C(c2ccc(F)c(F)c2)N1` (stereo not shown) [CBK282271] the figure was 98%; with `CC(C)c1ccc(/C=C/C(=O)NC(=S)Nc2cccc(C(=O)O)c2)cc1` [CBK265024], 94.3%; with `O=S(=O)(c1ccc(-c2cncc(-c3ccc(O)cc3)n2)cc1F)N1CCOCC1` [CBK126903], 94.3%.
Still for that read-out and setting: under `O=C(/C=C/c1ccccc1)ONC(=O)c1ccc(Cl)cc1` [CBK263702] stands 111%; under `Cc1ccc(S(=O)(=O)Nc2ccccn2)c(C)c1C` [CBK264995], 90%.
On the same count and under the same terms, under `CCN1CCN(c2ccc(C(=O)OC)cc2NC(=O)c2ccc(C#N)cc2F)CC1` [CBK270171] stands 101%; under `C=CCNC(=O)C1CCN(c2nc3ccccc3n2C)CC1` [CBK283955], 92%.
In the case of `Cc1ccc(C(=O)N/C(=C\c2ccccc2F)c2n[nH]c(=S)[nH]2)cc1` [CBK263136], the viability at 28.5 h, 10 µM was determined as 87.4%.
On the same count and under the same terms, under `FC(F)(F)c1cccnc1OCCNc1ccccc1` [CBK115822] stands 98.7%; under `COC(=O)CNC(=O)C1CC(=O)N(c2ccccc2Br)C1` (stereo not shown) [CBK296672], 97.1%; under `COc1ccc(N2C(=O)c3ccccc3NC2c2cccc(OCC(=O)Nc3ccccc3)c2)cc1` (stereo not shown) [CBK265406], 108%.
The same measure, in the same setting: under `CCN1CC(C(=O)N2CC(O)CC2c2cc(F)ccc2F)CC1=O` (stereo not shown) [CBK304031] stands 103%; under `CCCn1nccc1C(=O)NC1CCCN(Cc2cccc(OC)c2)C1` (stereo not shown) [CBK306563], 84.9%.
As to `O=C(O)[C@H]1CN(C(=O)c2ccco2)C[C@@H]1c1ccccc1F` [CBK283820], the viability at 28.5 h, 10 µM was found to be 80.6%.
The same measure, in the same setting: with `COCCCNc1nc2c(-c3ccc(Cl)cc3)nnn2c2ccccc12` [CBK287770] the figure was 96.3%.
The same measure, in the same setting: under `Cc1cccnc1C(Cc1ccsc1)NS(=O)(=O)c1ccc2[nH]c(=O)[nH]c(=O)c2c1` (stereo not shown) [CBK286356] stands 111%; under `COc1ccc([C@@]23CC[C@@H](NC(=O)c4ccc5c(c4)OC(F)(F)O5)C[C@@H]2N(C)CC3)cc1OC` [CBK076658T], 108%.
The same measure, in the same setting: with `Oc1nnc(-c2ccc(Cl)c(Cl)c2)n1C1CCCCC1` [CBK074888] the figure was 97.9%; with `OCCOc1ccccc1OCCO` [CBK260930], 93.6%.

Still in this data set, the particulars now being: human, hela cells, % viability, bulk resorufin, single well.
Consider `O=C1NC(=O)N(Cc2ccco2)C(=O)/C1=C\c1cn(Cc2ccccc2)c2ccccc12` [CBK263939], for which the viability at 28.5 h, 10 µM came out at 88.5%.
